From patent US20230085307A1, “PYRIDAZINONE COMPOUND AND HERBICIDE” (NISSAN CHEMICAL CORPORATION, priority 2019, published 2023) come the findings set out here.

One assay concerns barnyard grass. The experiment in a line: Test Example 3: herbicidal effect by foliage application, Wagner pot (Table 18, symbol H). Format: in vivo, barnyard grass (Echinochloa crus-galli). The conditions noted are these: for herbicidal effect on H (barnyard grass), rating 0-5: 320 g/ha. In short, it runs like this: (§1)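 Plants were sown in alluvial soil held under 0.1–0.5 cm standing water and grown 14 days in a greenhouse at 25–30 °C. An emulsifiable formulation, water-diluted to the set dose, was then sprayed onto the foliage, and effects were scored three weeks later using previously defined criteria.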

Assay [1] deals with Japanese bulrush. The experiment in a line: Test Example 1: herbicidal activity, application before weed generation under submerged conditions (Table 16, symbol B). It counts as in vivo, Japanese bulrush (Schoenoplectus juncoides). Summed up:
(§2)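 Alluvial soil was flooded to 4 cm depth, weed seeds were sown mixed and 2.5-leaf rice seedlings were transplanted. On sowing day, the compound's emulsion, diluted in water to a set dose, was applied to the water surface. Plants grew at 25–30 °C and were scored 0–5 after three weeks.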

For assay [2], the system named is late watergrass. The experiment in a line: Test Example 2: herbicidal activity, application during weed generation under submerged conditions (Table 17, symbol A). It counts as in vivo, late watergrass (Echinochloa oryzicola). The conditions noted are these: for herbicidal effect rating, A: late watergrass: application during weed generation, submerged conditions. In short, it runs like this:
(§3)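 In this pot test, flooded alluvial soil (water depth 4 cm) holds all three species sown as a mixture. Once seedlings have one to two leaves, the compound's emulsion, thinned with water to the intended dose, is poured on the water; grading follows after three weeks on the earlier criteria.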

The subject of assay [3] is oval-leafed pondweed. Put plainly: Test Example 2: herbicidal activity, application during weed generation under submerged conditions (Table 17, symbol C). Format: in vivo, oval-leafed pondweed (Monochoria vaginalis). To be noted: for herbicidal effect rating, C: oval-leafed pondweed: application during weed generation, submerged conditions. Summed up: as §3
Assay [4] has as its system late watergrass. Put plainly: Test Example 1: herbicidal activity, application before weed generation under submerged conditions (Table 16, symbol A). It counts as in vivo, late watergrass (Echinochloa oryzicola). In short, it runs like this: as §2
A further assay concerns rice flat sedge. Put plainly: Test Example 3: herbicidal effect by foliage application, Wagner pot (Table 18, symbol E). Format: in vivo, rice flat sedge (Cyperus iria). The conditions noted are these: for herbicidal effect on E (rice flat sedge), rating 0-5: 320 g/ha. Summed up: as §1
Assay [5] deals with Japanese bulrush. The experiment in a line: Test Example 2: herbicidal activity, application during weed generation under submerged conditions (Table 17, symbol B). Format: in vivo, Japanese bulrush (Schoenoplectus juncoides). To be noted: for herbicidal effect rating, B: Japanese bulrush: application during weed generation, submerged conditions. Summed up: as §3
In assay [6] the test system is oval-leafed pondweed. Put plainly: Test Example 1: herbicidal activity, application before weed generation under submerged conditions (Table 16, symbol C). Format: in vivo, oval-leafed pondweed (Monochoria vaginalis). Summed up:
as §2

A further assay has as its system Chinese sprangletop. The experiment in a line: Test Example 3: herbicidal effect by foliage application, Wagner pot (Table 18, symbol D). Format: in vivo, chinese sprangletop (Leptochloa chinensis). The conditions noted are these: for herbicidal effect on D (Chinese sprangletop), rating 0-5: 320 g/ha. In short, it runs like this: as §1
Where [7] appears, read: amount of applied herbicide 320 g/ha.
Where [8] appears, read: application during weed generation under submerged conditions, amount of applied herbicide 320 g/ha.

Consider `C=CCCOc1ccc(-c2sc3ccccc3c2-c2c(O)c(C)nn(C)c2=O)cc1` [1-207], for which the “herbicidal effect on H (barnyard grass), rating 0-5” value in the assay on barnyard grass is on record as 5 (Herbicidal rate of 90% or more (almost completely withered)). The “Herbicidal effect on B: Japanese bulrush (grade 0-5)” value (from here on “Herbicidal effect on B”) with Japanese bulrush [1] (320 g/ha applied herbicide) is 5 (Herbicidal rate of 90% or more (almost completely withered)). Further, the “herbicidal effect rating, A: late watergrass” value in the assay with late watergrass [2] (AAH 320 g/ha) is on record as 5 (Herbicidal rate of 90% or more (almost completely withered)). The “herbicidal effect rating, C: oval-leafed pondweed” value (from here on “herbicidal effect rating, C”) with oval-leafed pondweed [3] (AAH 320 g/ha) was 5 (Herbicidal rate of 90% or more (almost completely withered)). Moreover, the “Herbicidal effect on A: late watergrass (grade 0-5)” value in the assay on late watergrass [4] (320 g/ha applied herbicide) is reported as 5 (Herbicidal rate of 90% or more (almost completely withered)). Besides, the “herbicidal effect on E (rice flat sedge), rating 0-5” value in the assay on rice flat sedge was 4 (Herbicidal rate of 70% or more and less than 90%). The “herbicidal effect rating, B: Japanese bulrush” value (shortened to “herbicidal effect rating, B”) in the assay on Japanese bulrush [5] (AAH 320 g/ha) was 4 (Herbicidal rate of 70% or more and less than 90%). Besides, the “Herbicidal effect on C: oval-leafed pondweed (grade 0-5)” value (“Herbicidal effect on C” below) in the assay with oval-leafed pondweed [6] (320 g/ha applied herbicide) is reported as 5 (Herbicidal rate of 90% or more (almost completely withered)). For the same molecule, the “herbicidal effect on D (Chinese sprangletop), rating 0-5” value in the assay with Chinese sprangletop was 5 (Herbicidal rate of 90% or more (almost completely withered)).

Consider `Cc1nn(C)c(=O)c(-c2c(-c3ccc(OCCOCCCl)cc3)sc3ccccc23)c1O` [1-227], for which, in the assay with barnyard grass, the “herbicidal effect on H (barnyard grass), rating 0-5” value is reported as 5 (Herbicidal rate of 90% or more (almost completely withered)). Further, the “Herbicidal effect on B” value in the assay with Japanese bulrush [1] (320 g/ha applied herbicide) was 5 (Herbicidal rate of 90% or more (almost completely withered)). Besides, the “herbicidal effect rating, A: late watergrass” value with late watergrass [2] (AAH 320 g/ha) was 4 (Herbicidal rate of 70% or more and less than 90%). The “herbicidal effect rating, C” value with oval-leafed pondweed [3] (AAH 320 g/ha) is 3 (Herbicidal rate of 40% or more and less than 70%). Besides, the “Herbicidal effect on A: late watergrass (grade 0-5)” value with late watergrass [4] (320 g/ha applied herbicide) is 5 (Herbicidal rate of 90% or more (almost completely withered)). Further, in the assay with rice flat sedge, the “herbicidal effect on E (rice flat sedge), rating 0-5” value is 4 (Herbicidal rate of 70% or more and less than 90%). Also, the “herbicidal effect rating, B” value in the assay with Japanese bulrush [5] (AAH 320 g/ha) is 3 (Herbicidal rate of 40% or more and less than 70%). Moreover, in the assay on oval-leafed pondweed [6] (320 g/ha applied herbicide), the “Herbicidal effect on C” value is reported as 5 (Herbicidal rate of 90% or more (almost completely withered)). Moreover, the “herbicidal effect on D (Chinese sprangletop), rating 0-5” value with Chinese sprangletop was 4 (Herbicidal rate of 70% or more and less than 90%).

Regarding `Cc1nn(C)c(=O)c(-c2c(-c3ccccc3)sc3ccc(-c4ccccc4)cc23)c1O` [2-166], in the assay on Japanese bulrush [1] (80 g/ha applied herbicide), the “Herbicidal effect on B” value is on record as 0 (Herbicidal rate of 5% or less (almost no effect)). Also, the “herbicidal effect rating, A: late watergrass” value with late watergrass [2] (AAH 80 g/ha) was 0 (Herbicidal rate of 5% or less (almost no effect)). Besides, the “herbicidal effect rating, C” value with oval-leafed pondweed [3] (AAH 80 g/ha) is 0 (Herbicidal rate of 5% or less (almost no effect)). For the same molecule, in the assay with late watergrass [4] (80 g/ha applied herbicide), the “Herbicidal effect on A: late watergrass (grade 0-5)” value was 2 (Herbicidal rate of 20% or more and less than 40%). Besides, in the assay with Japanese bulrush [5] (AAH 80 g/ha), the “herbicidal effect rating, B” value was 3 (Herbicidal rate of 40% or more and less than 70%). Also, the “Herbicidal effect on C” value with oval-leafed pondweed [6] (80 g/ha applied herbicide) was 0 (Herbicidal rate of 5% or less (almost no effect)).

Turning to `Cc1nn(C)c(=O)c(-c2c(-c3ccc([S+]([O-])CC(F)F)cc3)sc3ccc(F)cc23)c1O` (stereo not drawn) [2-264], in the assay on barnyard grass (setting [7]), the “herbicidal effect on H: barnyard grass” value was 5 (Herbicidal rate of 90% or more (almost completely withered)). In addition, the “Herbicidal effect on B” value in the assay on Japanese bulrush [1] (320 g/ha applied herbicide) was 4 (Herbicidal rate of 70% or more and less than 90%). The “herbicidal effect rating, A: late watergrass” value in the assay with late watergrass [2] (AAH 320 g/ha) is 3 (Herbicidal rate of 40% or more and less than 70%). In the assay on oval-leafed pondweed [3] (AAH 320 g/ha), the “herbicidal effect rating, C” value was 3 (Herbicidal rate of 40% or more and less than 70%). Moreover, the “Herbicidal effect on A: late watergrass (grade 0-5)” value in the assay on late watergrass [4] (320 g/ha applied herbicide) is 4 (Herbicidal rate of 70% or more and less than 90%). Besides, in the assay with rice flat sedge (setting [7]), the “herbicidal effect on E: rice flat sedge” value is on record as 5 (Herbicidal rate of 90% or more (almost completely withered)). Further, in the assay with Japanese bulrush [5] (AAH 320 g/ha), the “herbicidal effect rating, B” value was 3 (Herbicidal rate of 40% or more and less than 70%). Further, the “Herbicidal effect on C” value in the assay with oval-leafed pondweed [6] (320 g/ha applied herbicide) is 3 (Herbicidal rate of 40% or more and less than 70%). Also, the “herbicidal effect on D: Chinese sprangletop” value in the assay on Chinese sprangletop (setting [7]) was 3 (Herbicidal rate of 40% or more and less than 70%).

On to `Cc1nn(C)c(=O)c(-c2c(-c3ccc(C[S+](C)[O-])cc3)sc3ccc(F)cc23)c1O` (stereo not drawn) [2-332], for which, in the assay with barnyard grass (setting [7]), the “herbicidal effect on H: barnyard grass” value is listed as 5 (Herbicidal rate of 90% or more (almost completely withered)). Further, the “Herbicidal effect on B” value with Japanese bulrush [1] (320 g/ha applied herbicide) is given as 0 (Herbicidal rate of 5% or less (almost no effect)). In addition, the “herbicidal effect rating, A: late watergrass” value in the assay with late watergrass [2] (AAH 320 g/ha) was 3 (Herbicidal rate of 40% or more and less than 70%). The “herbicidal effect rating, C” value in the assay on oval-leafed pondweed [3] (AAH 320 g/ha) is on record as 0 (Herbicidal rate of 5% or less (almost no effect)). In addition, in the assay on late watergrass [4] (320 g/ha applied herbicide), the “Herbicidal effect on A: late watergrass (grade 0-5)” value is 2 (Herbicidal rate of 20% or more and less than 40%). In addition, the “herbicidal effect on E: rice flat sedge” value in the assay on rice flat sedge (setting [7]) was 3 (Herbicidal rate of 40% or more and less than 70%). In the assay on Japanese bulrush [5] (AAH 320 g/ha), the “herbicidal effect rating, B” value is 0 (Herbicidal rate of 5% or less (almost no effect)). Besides, the “Herbicidal effect on C” value in the assay with oval-leafed pondweed [6] (320 g/ha applied herbicide) is listed as 0 (Herbicidal rate of 5% or less (almost no effect)). Further, the “herbicidal effect on D: Chinese sprangletop” value in the assay on Chinese sprangletop (setting [7]) is 3 (Herbicidal rate of 40% or more and less than 70%).

With `CCCC(=O)Oc1c(C)nn(C)c(=O)c1-c1c(-c2ccc(OC)c(Cl)c2)sc2ccc(F)cc12` [2-371], in the assay on barnyard grass (setting [7]), the “herbicidal effect on H: barnyard grass” value is 4 (Herbicidal rate of 70% or more and less than 90%). In addition, in the assay on Japanese bulrush [1] (320 g/ha applied herbicide), the “Herbicidal effect on B” value is 3 (Herbicidal rate of 40% or more and less than 70%). Besides, in the assay with late watergrass [2] (AAH 320 g/ha), the “herbicidal effect rating, A: late watergrass” value was 0 (Herbicidal rate of 5% or less (almost no effect)). Also, in the assay with oval-leafed pondweed [3] (AAH 320 g/ha), the “herbicidal effect rating, C” value was 4 (Herbicidal rate of 70% or more and less than 90%). The “Herbicidal effect on A: late watergrass (grade 0-5)” value in the assay on late watergrass [4] (320 g/ha applied herbicide) was 3 (Herbicidal rate of 40% or more and less than 70%). Further, the “herbicidal effect on E: rice flat sedge” value in the assay with rice flat sedge (setting [7]) was 4 (Herbicidal rate of 70% or more and less than 90%). In addition, the “herbicidal effect rating, B” value in the assay with Japanese bulrush [5] (AAH 320 g/ha) is 3 (Herbicidal rate of 40% or more and less than 70%). Besides, the “Herbicidal effect on C” value with oval-leafed pondweed [6] (320 g/ha applied herbicide) is 4 (Herbicidal rate of 70% or more and less than 90%). Besides, the “herbicidal effect on D: Chinese sprangletop” value in the assay on Chinese sprangletop (setting [7]) is 4 (Herbicidal rate of 70% or more and less than 90%).

In the case of `CCCOc1ccc(-c2oc3ccc(C)cc3c2-c2c(OC(=O)CCC)c(C)nn(C)c2=O)cc1` [9-050], the “Herbicidal effect on H (barnyard grass), foliage application” value in the assay on barnyard grass (setting [7]) is 4 (Herbicidal rate of 70% or more and less than 90%). Also, the “Herbicidal effect, B: Japanese bulrush” value in the assay with Japanese bulrush [1] (setting [7]) is 5 (Herbicidal rate of 90% or more (almost completely withered)). In addition, the “herbicidal effect grade, A: late watergrass” value with late watergrass [2] (setting [8]) was 3 (Herbicidal rate of 40% or more and less than 70%). Besides, the “herbicidal effect grade, C: oval-leafed pondweed” value in the assay on oval-leafed pondweed [3] (setting [8]) is listed as 5 (Herbicidal rate of 90% or more (almost completely withered)). In the assay on late watergrass [4] (setting [7]), the “Herbicidal effect, A: late watergrass” value was 5 (Herbicidal rate of 90% or more (almost completely withered)). The “Herbicidal effect on E (rice flat sedge), foliage application” value in the assay with rice flat sedge (setting [7]) is 5 (Herbicidal rate of 90% or more (almost completely withered)). Moreover, the “herbicidal effect grade, B: Japanese bulrush” value in the assay with Japanese bulrush [5] (setting [8]) is 3 (Herbicidal rate of 40% or more and less than 70%). In addition, the “Herbicidal effect, C: oval-leafed pondweed” value with oval-leafed pondweed [6] (setting [7]) is 5 (Herbicidal rate of 90% or more (almost completely withered)). The “Herbicidal effect on D (Chinese sprangletop), foliage application” value in the assay with Chinese sprangletop (setting [7]) was 3 (Herbicidal rate of 40% or more and less than 70%).
